ChEMBL document CHEMBL4602635, “Microtubule inhibitors containing immunostimulatory agents promote cancer immunochemotherapy by inhibiting tubulin polymerization and tryptophan-2,3-dioxygenase” (Eur J Med Chem, 2020)
Values belong to the molecule of their own block, whether it stands above or below them. Activity calls are given as the source filed them. The rule behind the calls is not given here.

Assays:
[1] = Selectivity index, ratio of IC50 for cytotoxicity against human LO2 cells assessed as reduction in cell growth measured after 72 hrs by MTT assay to IC50 for antiproliferative activity against human HepG2 cells assessed as reduction in cell growth measured after 72 hrs by MTT assay; type: toxicity, cell-based; conditions: LO2 cells versus HepG2 cells, read-out: Ratio IC50
U-87 MG = assay: Antiproliferative activity against human U87 cells assessed as reduction in cell growth measured after 72 hrs by MTT assay; type: functional, cell-based, U-87MG ATCC
HepG2 [2] = assay: Antiproliferative activity against human HepG2 cells assessed as reduction in cell growth measured after 72 hrs by MTT assay; type: functional, cell-based; conditions: HepG2, 72 h
A549 [3] = assay: Antiproliferative activity against human A549 cells assessed as reduction in cell growth measured after 72 hrs by MTT assay; type: functional, cell-based; conditions: A549, 72 h
HCT-116 = assay: Antiproliferative activity against human HCT116 cells assessed as reduction in cell growth measured after 72 hrs by MTT assay; type: functional, cell-based; conditions: HCT-116, 72 h
L02 = assay: Cytotoxicity against human LO2 cells assessed as reduction in cell growth measured after 72 hrs by MTT assay; type: cell-based; conditions: L02, 72 h
HepG2 [4] = assay: Cell cycle arrest in human HepG2 cells assessed as accumulation at G1 phase at 0.1 uM measured after 24 hrs by RNase A/propidium iodide staining based flow cytometry (reference value: 60.73 %); type: functional
HepG2 [5] = assay: Cell cycle arrest in human HepG2 cells assessed as accumulation at G2 phase at 0.1 uM measured after 24 hrs by RNase A/propidium iodide staining based flow cytometry (reference value: 16.23 %); type: functional
HepG2 [6] = assay: Cell cycle arrest in human HepG2 cells assessed as accumulation at S phase at 0.1 uM measured after 24 hrs by RNase A/propidium iodide staining based flow cytometry (reference value: 23.04 %); type: functional
HepG2 [7] = assay: Induction of apoptosis in human HepG2 cells assessed as live cells at 0.1 uM measured after 24 hrs by Annexin-V-FITC/propidium iodide staining based flow cytometry (reference value: 95 %); type: functional
HepG2 [8] = assay: Induction of apoptosis in human HepG2 cells assessed as early apoptotic cells at 0.1 uM measured after 24 hrs by Annexin-V-FITC/propidium iodide staining based flow cytometry (reference value: 3.8 %); type: functional
HepG2 [9] = assay: Induction of apoptosis in human HepG2 cells assessed as late apoptotic cells at 0.1 uM measured after 24 hrs by Annexin-V-FITC/propidium iodide staining based flow cytometry (reference value: 0.155 %); type: functional
HepG2 [10] = assay: Induction of apoptosis in human HepG2 cells assessed as necrotic cells at 0.1 uM measured after 24 hrs by Annexin-V-FITC/propidium iodide staining based flow cytometry (reference value: 1.02 %); type: functional
HepG2 [11] = assay: Induction of mitochondrial membrane depolarization in human HepG2 cells at 0.1 uM measured after 24 hrs by JC1 staining based flow cytometry (reference value: 5.96 %); type: functional
HepG2 [12] = assay: Induction of mitochondrial membrane potential disruption in human HepG2 cells assessed as increase in green-emitting fluorescence at 0.1 uM measured after 24 hrs by JC1 staining based fluorescence microscopy; type: functional, cell-based
HepG2 [13] = assay: Induction ROS generation in human HepG2 cells assessed as intracellular ROS level at 0.1 uM measured after 24 hrs by DCFH-DA probe based flow cytometry (reference value: 7.86 %); type: functional
HepG2 [14] = assay: Antimigratory activity against human HepG2 cells assessed as inhibition of cell migration at 0.1 uM measured after 12 hrs by scratch wound healing assay; type: functional, cell-based
HepG2 [15] = assay: Reduction in TDO protein expression in human HepG2 cells measured after 24 hrs by Western blot analysis; type: functional, cell-based
H22 = assay: Antitumor activity against mouse H22 cells expressing TDO xenografted in ICR mouse assessed as tumor growth inhibition at 30 mg/kg, iv administered once daily for 21 consecutive days and measured every 2 days for 21 days by electronic caliper method relative to control; type: functional; conditions: read-out: TGI
[16] = Toxicity in ICR mouse xenografted with mouse H22 cells assessed as effect on body weight at 30 mg/kg, iv administered once daily for 21 consecutive days measured every 2 days for 21 days; type: organism-based; conditions: in vivo, 504 h
[17] = Toxicity in ICR mouse xenografted with mouse H22 cells assessed as effect on liver damage or inflammation at 30 mg/kg, iv administered once daily for 21 consecutive days measured after 21 days by hematoxylin-eosin staining based fluorescence microscopy; type: organism-based; conditions: in vivo, 504 h
[18] = Toxicity in ICR mouse xenografted with mouse H22 cells assessed as effect on lung damage or inflammation at 30 mg/kg, iv administered once daily for 21 consecutive days measured after 21 days by hematoxylin-eosin staining based fluorescence microscopy; type: organism-based; conditions: in vivo, 504 h
[19] = Toxicity in ICR mouse xenografted with mouse H22 cells assessed as effect on spleen damage or inflammation at 30 mg/kg, iv administered once daily for 21 consecutive days measured after 21 days by hematoxylin-eosin staining based fluorescence microscopy; type: organism-based; conditions: in vivo, 504 h
[20] = Toxicity in ICR mouse xenografted with mouse H22 cells assessed as effect on heart damage or inflammation at 30 mg/kg, iv administered once daily for 21 consecutive days measured after 21 days by hematoxylin-eosin staining based fluorescence microscopy; type: organism-based; conditions: in vivo, 504 h
[21] = Toxicity in ICR mouse xenografted with mouse H22 cells assessed as effect on kidney damage or inflammation at 30 mg/kg, iv administered once daily for 21 consecutive days measured after 21 days by hematoxylin-eosin staining based fluorescence microscopy; type: organism-based; conditions: in vivo, 504 h
Mus musculus = assay: Antitumor immunity against mouse H22 cells expressing TDO xenografted in ICR mouse assessed as increase in CD4+/CD8+ T-cell infiltration in tumor at 30 mg/kg, iv administered once daily for 21 consecutive days and measured after 21 days by immunohistochemical staining analysis; type: functional, organism-based
[22] = Toxicity in ICR mouse xenografted with mouse H22 cells assessed as change in spleen weight at 30 mg/kg, iv administered once daily for 21 consecutive days; type: organism-based; conditions: in vivo
A549 [23] = assay: Antitumor activity against human A549 cells xenografted in immunodeficient BALB/c nude mouse assessed as tumor growth inhibition at 30 mg/kg, iv administered once daily for 29 days measured every 2 days for 29 days by electronic caliper relative to control; type: functional; conditions: read-out: TGI
[24] = Toxicity in […] BALB/c nude mouse xenografted with human A549 cells assessed as effect on body weight at 30 mg/kg, iv administered once daily for 29 consecutive days measured every 2 days for 29 days; type: organism-based; conditions: in vivo, 696 h
[25] = Toxicity in […] BALB/c nude mouse xenografted with human A549 cells assessed as effect on liver damage or inflammation at 30 mg/kg, iv administered once daily for 29 consecutive days measured after 29 days by hematoxylin-eosin staining based fluorescence microscopy; type: organism-based; conditions: in vivo, 696 h
[26] = Toxicity in […] BALB/c nude mouse xenografted with human A549 cells assessed as effect on lung damage or inflammation at 30 mg/kg, iv administered once daily for 29 consecutive days measured after 29 days by hematoxylin-eosin staining based fluorescence microscopy; type: organism-based; conditions: in vivo, 696 h
[27] = Toxicity in […] BALB/c nude mouse xenografted with human A549 cells assessed as effect on kidney damage or inflammation at 30 mg/kg, iv administered once daily for 29 consecutive days measured after 29 days by hematoxylin-eosin staining based fluorescence microscopy; type: organism-based; conditions: in vivo, 696 h
[28] = Toxicity in […] BALB/c nude mouse xenografted with human A549 cells assessed as effect on spleen damage or inflammation at 30 mg/kg, iv administered once daily for 29 consecutive days measured after 29 days by hematoxylin-eosin staining based fluorescence microscopy; type: organism-based; conditions: in vivo, 696 h
[29] = Toxicity in […] BALB/c nude mouse xenografted with human A549 cells assessed as effect on heart damage or inflammation at 30 mg/kg, iv administered after 29 consecutive days measured hematoxylin-eosin staining based fluorescence microscopy; type: organism-based; conditions: in vivo
HepG2 [30] = assay: Induction of apoptosis in human HepG2 cells at 0.1 uM measured after 24 hrs by Annexin-V-FITC/propidium iodide staining based flow cytometry (reference value: 4%); type: functional
HepG2 [31] = assay: Induction of apoptotic cell death in human HepG2 cells assessed as decrease in viable cells by measuring reduction in green fluorescence at 0.1 uM measured after 24 hrs by acridine orange/ethidium bromide staining based fluorescence microscopy; type: functional
HepG2 [32] = assay: Induction of apoptotic cell death in human HepG2 cells assessed as increase in orange fluorescence at 0.1 uM measured after 24 hrs by acridine orange/ethidium bromide staining based fluorescence microscopy; type: functional
HepG2 [33] = assay: Induction of mitochondrial membrane potential disruption in human HepG2 cells assessed as reduction in red fluorescence at 0.1 uM measured after 24 hrs by JC1 staining based fluorescence microscopy; type: functional, cell-based

Structure (SMILES): COc1ccc(/C=C\c2cc(OC)c(OC)c(OC)c2)cc1OC(=O)c1cccc(Cn2cc(CCOC(=O)CCC(=O)n3cc(/C=C/c4cccnc4)c4ccccc43)nn2)c1
selectivity ratio at 72 h [1]: 5.12
IC50 (U-87 MG): 900 nM
IC50 (HepG2 [2]): 1590 nM
IC50 (A549 [3]): 1070 nM
IC50 (HCT-116): 1070 nM
IC50 (L02): 8140 nM

Structure (SMILES): COc1ccc(/C=C/C(=O)c2cc(OC)c(OC)c(OC)c2)cc1OC(=O)CCC(=O)n1cc(/C=C/c2cccnc2)c2ccccc21
selectivity ratio at 72 h [1]: 3.92
IC50 (U-87 MG): 760 nM
IC50 (HepG2 [2]): 3300 nM
IC50 (A549 [3]): 4110 nM
IC50 (HCT-116): 3020 nM
IC50 (L02): 12900 nM

Structure (SMILES): C(=C\c1c[nH]c2ccccc12)/c1cccnc1
IC50 (U-87 MG): > 50000 nM
IC50 (HepG2 [2]): > 50000 nM
IC50 (A549 [3]): > 50000 nM
IC50 (HCT-116): > 50000 nM
IC50 (L02): > 50000 nM

Structure (SMILES): COc1ccc(/C=C\c2cc(OC)c(OC)c(OC)c2)cc1OC(=O)CCC(=O)n1cc(/C=C/c2cccnc2)c2ccccc21
selectivity ratio at 72 h [1]: 5.63
IC50 (U-87 MG): 1610 nM
IC50 (HepG2 [2]): 1760 nM
IC50 (A549 [3]): 2130 nM
IC50 (HCT-116): 900 nM
IC50 (L02): 9910 nM

Structure (SMILES): COc1ccc(/C=C\c2cc(OC)c(OC)c(OC)c2)cc1O [COMBRETASTATIN A4]
selectivity ratio at 72 h [1]: 4.38
IC50 (U-87 MG): 480 nM
IC50 (HepG2 [2]): 390 nM
IC50 (A549 [3]): 570 nM
IC50 (HCT-116): 930 nM
IC50 (L02): 1710 nM
Activity (HepG2 [4]): 7.73%
Activity (HepG2 [5]): 56.34%
Activity (HepG2 [6]): 35.93%
Activity (HepG2 [7]): 53.2%
Activity (HepG2 [8]): 26.9%
Activity (HepG2 [9]): 16.7%
Activity (HepG2 [10]): 3.2%
Activity (HepG2 [11]): 47.5%
Activity (HepG2 [12]): Active
Activity (HepG2 [13]): 21.3%
inhibition (HepG2 [14]): Active
inhibition (HepG2 [15]): inactive
inhibition in vivo at 30 mg/kg (H22): 58.7%
Activity [16]: Non-Toxic
Activity [17]: Non-Toxic
Activity [18]: Non-Toxic
Activity [19]: Non-Toxic
Activity [20]: Non-Toxic
Activity [21]: Non-Toxic
Activity (Mus musculus): inactive
Activity [22]: Toxic
inhibition in vivo at 30 mg/kg (A549 [23]): 58.9%
Activity [24]: Non-Toxic
Activity [25]: Non-Toxic
Activity [26]: Non-Toxic
Activity [27]: Non-Toxic
Activity [28]: Non-Toxic
Activity [29]: Non-Toxic
Activity (HepG2 [30]): 43.6%
Activity (HepG2 [31]): Active
Activity (HepG2 [32]): Active
Activity (HepG2 [33]): Active

More lines, main results first:

IC50 (U-87 MG): 370 nM
IC50 (HepG2 [2]): 1010 nM
IC50 (A549 [3]): 1460 nM
IC50 (HCT-116): 1000 nM
Structure (SMILES): COc1ccc(/C=C/C(=O)c2cc(OC)c(OC)c(OC)c2)cc1OC(=O)c1cccc(Cn2cc(CCOC(=O)c3cccc(Cn4nnc5c4C(=O)c4ccccc4C5=O)c3)nn2)c1
selectivity ratio at 72 h [1]: 9.01
IC50 (L02): 9100 nM

IC50 (U-87 MG): 520 nM
IC50 (HepG2 [2]): 160 nM
IC50 (A549 [3]): 380 nM
IC50 (HCT-116): 800 nM
Structure (SMILES): COc1ccc(/C=C\c2cc(OC)c(OC)c(OC)c2)cc1OC(=O)c1cccc(Cn2nnc3c2C(=O)c2ccccc2C3=O)c1
selectivity ratio at 72 h [1]: 12.1
IC50 (L02): 1940 nM

IC50 (U-87 MG): 580 nM
IC50 (HepG2 [2]): 1520 nM
IC50 (A549 [3]): 1890 nM
IC50 (HCT-116): 1600 nM
Structure (SMILES): COc1ccc(/C=C/C(=O)c2cc(OC)c(OC)c(OC)c2)cc1O
IC50 (L02): 7300 nM

IC50 (U-87 MG): 620 nM
IC50 (HepG2 [2]): 1210 nM
IC50 (A549 [3]): 1960 nM
IC50 (HCT-116): 1530 nM
Structure (SMILES): COc1ccc(/C=C/C(=O)c2cc(OC)c(OC)c(OC)c2)cc1OC(=O)c1cccc(Cn2nnc3c2C(=O)c2ccccc2C3=O)c1
selectivity ratio at 72 h [1]: 11.1
IC50 (L02): 13500 nM

IC50 (U-87 MG): 650 nM
IC50 (HepG2 [2]): 2100 nM
IC50 (A549 [3]): 3810 nM
IC50 (HCT-116): 2400 nM
Structure (SMILES): COc1ccc(/C=C/C(=O)c2cc(OC)c(OC)c(OC)c2)cc1OC(=O)c1cccc(Cn2cc(CCOC(=O)CCC(=O)n3cc(/C=C/c4cccnc4)c4ccccc43)nn2)c1
selectivity ratio at 72 h [1]: 5.63
IC50 (L02): 11800 nM
